Results taken from publication PMC12677607, “Identification of a Pair of Linear or Cyclic Naturally Inspired Bifunctional Lipopeptide Antibiotics That Overcome Antimicrobial Resistance” (Advanced Science, 2025).
Square brackets hold non-standard residues; d marks the D form. Peptide text beside a SMILES is read from it. * marks the point of attachment. Myristoyl = CCCCCCCCCCCCCC(=O)*

How the values were obtained:
[1] = test system: Acinetobacter baumannii 1104008; experiment: microbe, parasite or virus in culture; assay type: cell-based; settings: 1104008, 16 h
Description: (§1) All MIC assays were performed two independent times (n = 2) in 96‐well plates using a broth micro‐dilution method. The lowest concentration of that inhibited visible microbial growth was recorded as the MIC value.
(§2) For most of bacterial strains, overnight cultures were diluted 5000‐fold in LB broth. For E. faecium and S. aureus, overnight cultures were diluted 1000‐ and 10000‐fold in LB broth, respectively. 100 µL of diluted cells was mixed with 100 µL of LB broth containing each peptide ranging from 64 to 0.125 µg mL^−1 at 2‐fold serial dilutions.

[2] = test system: Klebsiella pneumoniae CRKP 5452; experiment: microbe, parasite or virus in culture; assay type: cell-based; settings: CRKP 5452, 16 h
Description: as §1, §2

[3] = test system: Staphylococcus aureus USA300; experiment: microbe, parasite or virus in culture; assay type: cell-based; settings: USA300, 16 h
Description: as §1, §2

[4] = test system: Streptococcus pyogenes ATCC 19615; experiment: microbe, parasite or virus in culture; assay type: cell-based; settings: ATCC 19615, 16 h
Description: as §1, §2

[5] = test system: Candida albicans ATCC 10231; experiment: MIC assay (YPD broth); assay type: cell-based; settings: ATCC 10231, 16 h
Description: as §1
(§3) For fungal strains, overnight cultures were diluted 2000‐fold in YPD broth. 100 µL of diluted cells was mixed with 100 µL of YPD broth containing each peptide ranging from […] 64 to 0.125 µg mL^−1 at 2‐fold serial dilutions.

HeLa cells = experiment: Cytotoxicity assay (CCK-8); assay type: cell-based, human; settings: 48 h
Description: The cytotoxicity of each synAQU peptide was assessed using a cell counting kit‐8 (CCK‐8) assay. HeLa cells were first seeded in a 96‐well flat‐bottom microtiter plate with a density of ∼5000 cells per well and incubated in the DMEM medium supplemented with 10% FBS at 37 °C with 5% CO2 for 24 h. […] All cytotoxicity experiments were done in triplicate (n = 3) and repeated two independent times (n = 2).

[6] = test system: four Gram-negative bacteria, four Gram-positive bacteria, and one fungal pathogen; experiment: Initial antimicrobial assay of 17 synAQUs; assay type: cell-based; settings: MIC up to 64 µg mL^−1, Figure 3a
Description: as §1, §2, §3

CCCCCCCCCCCCCC(=O)N[C@@H](CCCCN)C(=O)N[C@@H](CCCNC(=N)N)C(=O)N[C@@H](CC(C)C)C(=O)N[C@@H](C)C(=O)N[C@@H](CC(C)C)C(=O)N[C@H](C(=O)N[C@@H](CC(=O)O)C(=O)N[C@@H](CC(=O)O)C(=O)N[C@H](C(=O)N[C@@H](CC(N)=O)C(=O)N[C@H](C(=O)N[C@H](Cc1ccccc1)C(=O)N[C@@H](CC(N)=O)C(=O)O)C(C)C)C(C)C)[C@@H](C)O [synAQU7-L] (Myristoyl-KRLALTDDVNV[dF]N-OH)
MIC (μg/mL) A. baumannii 1104008 [1]: > 64 µg/mL
MIC (μg/mL) K. pneumoniae CRKP 5452 [2]: > 64 µg/mL
MIC (μg/mL) S. aureus USA300 [3]: > 64 µg/mL
MIC (μg/mL) S. pyogenes ATCC 19615 [4]: > 64 µg/mL
MIC (μg/mL) C. albicans ATCC 10231 [5]: > 64 µg/mL
MIC (μg/mL) Hela (HeLa cells): > 64 µg/mL
activity against all nine tested strains [6]: not active
